pIC50, pKi: −log10 of the molar value.
Legend:
Adenosine receptor A1 = target: T1, Adenosine receptor A1 (Homo sapiens, UniProt P30542); experiment: Displacement of [3H]CCPA from human adenosine A1 receptor expressed in CHO cells after 3 hrs by scintillation counting method; type: cell-based
T1 sequence (P30542 whole entry): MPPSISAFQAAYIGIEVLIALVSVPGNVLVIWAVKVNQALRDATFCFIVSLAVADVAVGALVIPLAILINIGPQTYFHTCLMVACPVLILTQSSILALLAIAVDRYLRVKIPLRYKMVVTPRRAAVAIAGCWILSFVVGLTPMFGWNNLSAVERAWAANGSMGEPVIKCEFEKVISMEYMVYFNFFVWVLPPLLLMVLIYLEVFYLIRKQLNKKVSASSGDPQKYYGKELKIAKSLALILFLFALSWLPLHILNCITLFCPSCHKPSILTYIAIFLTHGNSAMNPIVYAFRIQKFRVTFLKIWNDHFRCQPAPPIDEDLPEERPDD

Adenosine receptor A2a [1] = target: T2, Adenosine receptor A2a (Homo sapiens, UniProt P29274); experiment: Displacement of [3H]NECA from human adenosine A2A receptor expressed in CHO cells after 3 hrs by scintillation counting method; type: cell-based
T2 sequence (P29274 whole entry): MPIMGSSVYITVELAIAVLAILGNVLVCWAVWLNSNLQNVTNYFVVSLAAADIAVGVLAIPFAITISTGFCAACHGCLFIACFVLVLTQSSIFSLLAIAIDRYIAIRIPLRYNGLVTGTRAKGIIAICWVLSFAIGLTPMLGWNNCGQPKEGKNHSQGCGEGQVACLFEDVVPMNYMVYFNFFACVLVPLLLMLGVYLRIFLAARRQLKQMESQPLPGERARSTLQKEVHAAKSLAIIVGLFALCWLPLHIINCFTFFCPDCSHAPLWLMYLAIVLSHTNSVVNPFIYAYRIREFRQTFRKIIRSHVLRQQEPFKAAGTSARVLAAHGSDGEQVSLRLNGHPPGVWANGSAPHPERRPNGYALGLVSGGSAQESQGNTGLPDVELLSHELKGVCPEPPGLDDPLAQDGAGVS

Adenosine receptor A3 = target: T3, Adenosine receptor A3 (Homo sapiens, UniProt P0DMS8); experiment: Displacement of [3H]HEMADO from human adenosine A3 receptor expressed in CHO cells after 3 hrs by scintillation counting method; type: cell-based
T3 sequence (P0DMS8 whole entry): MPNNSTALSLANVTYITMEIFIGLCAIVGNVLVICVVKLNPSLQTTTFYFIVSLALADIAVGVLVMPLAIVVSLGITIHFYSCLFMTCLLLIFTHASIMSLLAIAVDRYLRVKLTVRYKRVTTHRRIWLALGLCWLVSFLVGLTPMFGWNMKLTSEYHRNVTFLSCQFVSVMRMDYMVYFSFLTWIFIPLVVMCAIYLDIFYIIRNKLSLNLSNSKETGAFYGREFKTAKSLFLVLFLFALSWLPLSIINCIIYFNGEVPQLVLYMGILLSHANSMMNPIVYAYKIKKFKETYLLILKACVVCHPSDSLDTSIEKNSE

Homo sapiens [2] = species: Homo sapiens; experiment: Selectivity ratio of Ki for displacement of [3H]CCPA from human adenosine A1 receptor expressed in CHO cells to Ki for displacement of [3H]NECA from human adenosine A2A receptor expressed in CHO cells; type: cell-based
Homo sapiens [3] = species: Homo sapiens; experiment: Selectivity ratio of Ki for displacement of [3H]HEMADO from human adenosine A3 receptor expressed in CHO cells to Ki for displacement of [3H]NECA from human adenosine A2A receptor expressed in CHO cells; type: cell-based
Adenosine receptor A2b = target: T4, Adenosine receptor A2b (Homo sapiens, UniProt P29275); experiment: Antagonist activity at human adenosine A2B receptor expressed in CHO cells assessed as inhibition of NECA-induced increase in cAMP accumulation preincubated for 10 mins followed by NECA addition by GloSensor cAMP assay; type: functional, cell-based
T4 sequence (P29275 whole entry): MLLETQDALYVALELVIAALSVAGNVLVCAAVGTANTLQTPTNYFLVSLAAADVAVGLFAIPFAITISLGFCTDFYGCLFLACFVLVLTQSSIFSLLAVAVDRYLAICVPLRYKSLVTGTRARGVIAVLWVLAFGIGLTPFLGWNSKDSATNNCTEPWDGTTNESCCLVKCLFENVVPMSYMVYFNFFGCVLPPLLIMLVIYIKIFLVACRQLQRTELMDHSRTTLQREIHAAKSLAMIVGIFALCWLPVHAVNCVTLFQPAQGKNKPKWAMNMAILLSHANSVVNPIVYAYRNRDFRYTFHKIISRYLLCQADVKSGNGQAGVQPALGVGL

[4] = target: Adenosine receptors; A1 & A3 (Homo sapiens) (UniProt P30542+P0DMS8); experiment: Selectivity ratio of Ki for displacement of [3H]CCPA from human adenosine A1 receptor expressed in CHO cells to Ki for displacement of [3H]HEMADO from human adenosine A3 receptor expressed in CHO cells; type: cell-based
Homo sapiens [5] = species: Homo sapiens; experiment: Selectivity ratio of Ki for [3H]NECA from human adenosine A2A receptor expressed in CHO cells to Ki for displacement of [3H]HEMADO from human adenosine A3 receptor expressed in CHO cells; type: cell-based
Adenosine receptor A2a [6] = target: T2, Adenosine receptor A2a; experiment: Antagonist activity at human adenosine A2A receptor expressed in CHO cells assessed as inhibition of NECA-induced increase in cAMP accumulation preincubated for 10 mins followed by NECA addition by GloSensor cAMP assay; type: functional, cell-based

SMILES | pKi (Adenosine receptor A1) | pKi (Adenosine receptor A2a [1]) | pKi (Adenosine receptor A3) | pIC50 (Adenosine receptor A2b) | Ratio Ki [4] | pIC50 (Adenosine receptor A2a [6]) | Ratio Ki (Homo sapiens [2]) | Ratio Ki (Homo sapiens [3]) | Ratio Ki (Homo sapiens [5])
Nc1nc(-c2ccccc2)nc2sc(-c3ccco3)nc12 | 7.48 | 8.52 | 7.82 | < 4.52 | 2.2 |  | 11 | 5 | 0.2
N#Cc1cccc(-c2nc(N)c3nc(-c4ccccc4)sc3n2)c1 | 6.23 | 7.47 | 6.61 | < 4.52 |  |  | 17.7 | 7.3 | 
COc1cccc(-c2nc(N)c3nc(-c4ccco4)sc3n2)c1 | 7.21 | 8.72 | 8.31 | < 4.52 |  |  | 32.8 | 2.6 | 
Nc1nc(-c2cccc(CO)c2)nc2sc(-c3ccccc3)nc12 | 7.49 | 7.28 | 8.43 | < 4.52 |  |  | 0.6 | 0.07 | 
Cc1ccc(-c2nc(N)c3nc(-c4ccco4)sc3n2)o1 | 7.34 | 8.63 | 7.86 | < 4.52 |  |  | 19.4 | 5.8 | 
Nc1nc(-c2cccc(CO)c2)nc2sc(-c3ccco3)nc12 | 7.55 | 8.68 | 9.05 | < 4.52 |  |  | 13 | 0.4 | 
Nc1nc(-c2ccco2)nc2sc(-c3ccccc3)nc12 | 7.17 | 8.77 | 8.55 | < 4.52 |  | 6.79 | 39.4 | 1.6 | 
Nc1nc(-c2cccc(O)c2)nc2sc(-c3ccco3)nc12 | 7.29 | 8.79 | 7.80 | < 4.52 |  | 6.12 | 31.1 | 9.6 | 
COc1ccc(-c2nc(N)c3nc(-c4ccco4)sc3n2)cc1 | 7.32 | 7.95 | 8.33 | < 4.52 |  |  | 4.2 | 0.4 | 
Nc1nc(-c2cccc(O)c2)nc2sc(-c3ccccc3)nc12 | 7.23 | 8.30 | 6.72 | < 4.52 |  | 6.20 | 11.7 | 38 | 
Nc1nc(-c2ccco2)nc2sc(-c3ccco3)nc12 | 7.16 | 8.47 | 7.00 | < 4.52 |  | 6.52 | 20.3 | 29.1 | 
Nc1nc(-c2ccccc2)nc2sc(-c3ccccc3)nc12 | 6.83 | 7.72 | 7.08 | < 4.52 | 1.76 |  | 7.8 | 4.4 | 0.22
N#Cc1cccc(-c2nc(N)c3nc(-c4ccco4)sc3n2)c1 | 6.99 | 8.11 | 7.21 | < 4.52 |  |  | 13.3 | 8 | 
Nc1nc(-c2ccc(CO)cc2)nc2sc(-c3ccco3)nc12 | 7.11 | 8.11 | 8.45 | < 4.52 |  |  | 10.1 | 0.5 | 

Continued, in another order:

pKi (Adenosine receptor A1) | pKi (Adenosine receptor A2a [1]) | pKi (Adenosine receptor A3) | pIC50 (Adenosine receptor A2b) | Ratio Ki [4] | pIC50 (Adenosine receptor A2a [6]) | SMILES | Ratio Ki (Homo sapiens [2]) | Ratio Ki (Homo sapiens [3]) | Ratio Ki (Homo sapiens [5])
< 4.52 | 5.94 | 7.49 | < 4.52 | > 900 |  | O=C(Nc1nc(-c2ccccc2)nc2sc(-c3ccco3)nc12)c1ccccc1 |  |  | 35.7
6.75 | 6.96 | 7.45 | < 4.52 |  |  | COc1cccc(-c2nc(N)c3nc(-c4ccccc4)sc3n2)c1 | 1.6 | 0.3 | 
< 4.52 | < 4.52 | < 4.52 | < 4.52 |  |  | Cc1nc(NC(=O)c2ccc(Cl)cc2)c2nc(-c3ccccc3)sc2n1 |  |  | 
5.84 | < 4.52 | 7.04 | < 4.52 | 16 |  | COc1ccc(C(=O)Nc2nc(C)nc3sc(-c4ccccc4)nc23)cc1 |  |  | > 300
6.58 | 6.37 | 8.40 | < 4.52 | 66.2 |  | O=C(Nc1nc(-c2ccccc2)nc2sc(-c3ccco3)nc12)c1ccco1 |  |  | 107
6.65 | 6.94 | 7.33 | < 4.52 |  |  | COc1ccc(-c2nc(N)c3nc(-c4ccccc4)sc3n2)cc1 | 1.9 | 0.4 | 
7.09 | 7.09 | 8.09 | < 4.52 |  |  | Nc1nc(-c2ccc(CO)cc2)nc2sc(-c3ccccc3)nc12 | 1 | 0.1 | 
7.54 | 7.65 | 7.60 | < 4.52 |  |  | Cc1ccc(-c2nc(N)c3nc(-c4ccccc4)sc3n2)o1 | 1.3 | 1.1 | 
7.47 | 6.61 | 5.58 | < 4.52 | 0.01 |  | Cc1nc(N)c2nc(-c3ccccc3)sc2n1 | 0.14 | 10.7 | 0.09
6.03 | 5.71 | 6.16 | < 4.52 | 1.3 |  | Cc1nc(NC(=O)c2ccccc2)c2nc(-c3ccccc3)sc2n1 |  |  | 2.8
5.83 | 6.98 | 5.92 | < 4.52 | 1.2 |  | O=C(Nc1nc(-c2ccccc2)nc2sc(-c3ccccc3)nc12)c1ccccc1 |  |  | 0.08
5.64 | 5.40 | 7.32 | < 4.52 | 47.4 |  | O=C(Nc1nc(-c2ccccc2)nc2sc(-c3ccccc3)nc12)c1ccco1 |  |  | 83
